This note sets out measurements from publication PMC3723356 (Journal of natural products, 2013).

The structures appear in SMILES notation.

The target in the assay is human δ-opioid receptor (Homo sapiens, UniProt P41143). Briefly: [35S]-GTPγS functional assay. In kind it is biochemical. Particulars: from [35S]-GTPγS assay.
human δ-opioid receptor, sequence (P41143 whole entry): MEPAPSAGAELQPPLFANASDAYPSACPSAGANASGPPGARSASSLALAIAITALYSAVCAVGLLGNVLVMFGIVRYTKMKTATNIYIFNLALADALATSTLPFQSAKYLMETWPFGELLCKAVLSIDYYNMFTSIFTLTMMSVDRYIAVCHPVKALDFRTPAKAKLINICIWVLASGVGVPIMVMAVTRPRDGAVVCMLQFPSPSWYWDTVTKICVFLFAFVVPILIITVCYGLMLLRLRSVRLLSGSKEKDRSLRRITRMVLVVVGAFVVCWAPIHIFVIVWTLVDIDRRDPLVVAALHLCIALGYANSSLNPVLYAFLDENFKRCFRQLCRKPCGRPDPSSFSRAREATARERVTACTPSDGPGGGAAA

Take `COc1cc(O)c2c(c1)CC(=O)CCCC(=O)CCC[C@@H](C)OC2=O` [Compound 4, neocosmosin C]: the “classification of functional activity at the human δ-opioid receptor” value was “full agonist”.
